Earlier results as cited in patent publication US11957650B2, “Formulation and method for the prevention and/or treatment of hangover symptoms” (PHOENIX PHARMACEUTICALS AUSTRALIA PTY LTD, priority 2016, dated 2024).

System: acetaldehyde poisoning in rats
Settings: for Effective dose in rats: footnotes * and † not given

Structure (SMILES) | Effective dose in rats | mortality due to acetaldehyde poisoning (L-cysteine alone [13, 14]) | mortality in rats poisoned with acetaldehyde, thiamine added to L-cysteine (addition of thiamine to L-cysteine [13, 14])
O=C1O[C@H]([C@@H](O)CO)C(O)=C1O [Ascorbic acid] | 50 mg |  | 
N[C@@H](CS)C(=O)O [L-cysteine] | 34 mg | markedly reduce the mortality | 
Cc1ncc(C[n+]2csc(CCO)c2C)c(N)n1.Cl.[Cl-] [Thiamine•HCl] | 42 mg |  | 
Cc1ncc(C[n+]2csc(CCO)c2C)c(N)n1 [thiamine, Thiamine] |  |  | enhanced the ability of L-cysteine to reduce mortality
